Data as given in patent publication US11299473B2, “Benzimidazole and indole compounds and uses thereof” (Incyte Corporation, priority 2018, dated 2022).

Target: active HPK1 (SignalChem M23-11G) (Homo sapiens (Human), UniProt Q92918)
Assay: HPK1 Kinase Binding Assay
Settings: LanthaScreen tracer 222 / Eu-Anti GST antibody, one hour incubation at 25° C.
Method: A stock solution of 1 mM test compound was prepared in DMSO. The compound plate was prepared by 3-fold and 11-point serial dilutions. 0.1 μL of the compound in DMSO was transferred from the compound plate to the white 384 well polystyrene plates. The assay buffer contained 50 mM HEPES, pH 7.5, 0.01% Tween-20, 5 mM MgCl2, 0.01% BSA, and 5 mM DTT. 5 μL of 4 nM active HPK1 (SignalChem M23-11G) prepared in the buffer was added to the plate. The enzyme concentration given was based on the given stock concentration reported by the vender. 5 μl of 18 nM tracer 222 (ThermoFisher PV6121) and 4 nM LanthaScreen Eu-Anti GST antibody (ThermoFisher PV5595) were added. After one hour incubation at 25° C., the plates were read on a PHERAstar FS plate reader (BMG Labtech). Ki values were determined.

Chain of active HPK1 (SignalChem M23-11G) (Q92918 1-346 limits assumed): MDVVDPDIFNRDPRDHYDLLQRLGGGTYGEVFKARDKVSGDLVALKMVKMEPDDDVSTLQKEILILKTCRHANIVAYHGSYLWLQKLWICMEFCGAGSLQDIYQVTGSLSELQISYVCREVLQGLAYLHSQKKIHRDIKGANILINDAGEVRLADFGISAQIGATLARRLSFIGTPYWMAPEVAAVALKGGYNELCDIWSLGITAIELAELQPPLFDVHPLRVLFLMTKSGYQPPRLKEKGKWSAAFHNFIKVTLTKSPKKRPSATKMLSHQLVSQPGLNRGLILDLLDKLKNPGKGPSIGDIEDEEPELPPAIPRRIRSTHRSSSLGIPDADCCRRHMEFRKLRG

| Ki | SMILES |
| --- | --- |
| ≤ 100 nM | COc1cccc(F)c1-c1nccc(C(=O)Nc2ccc3c(ccn3-c3ccnn3C)c2N2C[C@@H](N)C[C@H]2CO)n1 [Example 46, N-(4-((2S,4S)-4-Amino-2-(hydroxymethyl)pyrrolidin-1-yl)-1-(1-methyl-1H-pyrazol-5-yl)-1H-indol-5-yl)-2-(2-fluoro-6-methoxyphenyl)pyrimidine-4-carboxamide] |
| ≤ 100 nM | COc1cccc(F)c1-c1nccc(C(=O)Nc2ccc3c(ccn3-c3cccc(F)c3C#N)c2N2C[C@@H](N)C[C@H]2CO)n1 [Example 47, N-(4-((2S,4S)-4-Amino-2-(hydroxymethyl)pyrrolidin-1-yl)-1-(2-cyano-3-fluorophenyl)-1H-indol-5-yl)-2-(2-fluoro-6-methoxyphenyl)pyrimidine-4-carboxamide] |
